Values of other authors in US20030113384A1, “Antimicrobial compositions for mastitis control” (Ecolab Inc., priority 1999, published 2003).

CCCCCCC(=O)O [heptanoic acid]
pKa: 4.4
